Data taken from patent US8852664B2, “Neo-menthyl derivatives as flavor materials” (Symrise AG, priority 2008, dated 2014).

Legend:
[1] = Flavor profile determined by a trained panel of at least 5 testers; type: in vivo; conditions: trained panel of at least 5 testers, tasting against a 0.5% strength salt and a 0.5% strength sugar solution
Method: The flavor profiles were determined by a trained panel of at least 5 testers by tasting against a 0.5% strength salt and a 0.5% strength sugar solution

[2] = Flavor comparison in chicken aroma base (FIG. 2), panel of trained testers; type: in vivo; conditions: 1 ppm in chicken aroma base vs base with 0.2 wt. % standard aroma (containing MSG)
Source text: Here, a base for a chicken aroma is compared with (i) such a base having 1 ppm of the pure-enantiomer compound 1-((1S,2S,5R)-2-isopropyl-5-methyl-cyclohexyl)-3-(3-methoxy-propyl)-urea (1) added and (ii) with such a base having 0.2 wt. % of a standard aroma (containing MSG) added.
The flavor of the chicken base (solid dark line) was compared with the aid of tasting by a panel of trained testers with the flavor firstly of such a base to which 1 ppm of 1-((1S,2S,5R)-2-Isopropyl-5-methyl-cyclohexyl)-3-(3-methoxy-propyl)-urea (1) was added (solid light line), and secondly such a base to which 0.2 wt. % of a standard chicken aroma containing sodium glutamate was added (dotted line).
The testers evaluated the strength of the test directions indicated, in each case by specifying marks on a scale of from 0 (no corresponding flavor) to 8 (very strong corresponding flavor). The average values of the respective marks are represented.

For `COCCCNC(=O)N[C@H]1C[C@H](C)CC[C@H]1C(C)C` [(1), 1-((1S,2S,5R)-2-isopropyl-5-methyl-cyclohexyl)-3-(3-methoxy-propyl)-urea], the “Flavor Profile” value [1] was “salty, long-lasting, umami, no by notes” and the “flavor character compared with standard aroma containing MSG” value [2] was “genuine MSG-like character”.
